Laboratory results published in the supplement of paper PMC10307832.

Experiments:
Test in all cases: relative viability (nuclei count vs DMSO), 5 days (fraction); higher = more cells survive
Pictilisib + Luminespib = compound: CS(=O)(=O)N1CCN(Cc2cc3nc(-c4cccc5[nH]ncc45)nc(N4CCOCC4)c3s2)CC1 [Pictilisib] + CCNC(=O)c1noc(-c2cc(C(C)C)c(O)cc2O)c1-c1ccc(CN2CCOCC2)cc1 [Luminespib] (partner 0.01 µM)
In short: (§1)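 Values are medians from duplicate plates. Each reflects relative viability, defined as the nuclei count of treated wells over that of vehicle wells. Lung cancer cell lines in 1536-well plates were pin-tool dosed one day after seeding with one drug alone or with a fixed anchor-drug dose plus five library-drug doses (not always all listed) in √10 steps, then fixed, stained and imaged at 4× after 5 days.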

Pictilisib + OSI-027 = compound: CS(=O)(=O)N1CCN(Cc2cc3nc(-c4cccc5[nH]ncc45)nc(N4CCOCC4)c3s2)CC1 [Pictilisib] + COc1cccc2cc(-c3nc([C@H]4CC[C@H](C(=O)O)CC4)n4ncnc(N)c34)[nH]c12 [OSI-027] (partner 0.5 µM)
In short: as §1

Pictilisib + Decitabine = compound: CS(=O)(=O)N1CCN(Cc2cc3nc(-c4cccc5[nH]ncc45)nc(N4CCOCC4)c3s2)CC1 [Pictilisib] + Nc1ncn([C@H]2C[C@H](O)[C@@H](CO)O2)c(=O)n1 [Decitabine] (partner 2 µM)
In short: as §1

MK-2206 + Linsitinib = compound: NC1(c2ccc(-c3nc4ccn5c(=O)[nH]nc5c4cc3-c3ccccc3)cc2)CCC1 [MK-2206] + C[C@]1(O)C[C@@H](c2nc(-c3ccc4ccc(-c5ccccc5)nc4c3)c3c(N)nccn32)C1 [Linsitinib] (partner 1 µM)
In short: as §1

MK-2206 + Alpelisib = compound: NC1(c2ccc(-c3nc4ccn5c(=O)[nH]nc5c4cc3-c3ccccc3)cc2)CCC1 [MK-2206] + Cc1nc(NC(=O)N2CCC[C@H]2C(N)=O)sc1-c1ccnc(C(C)(C)C(F)(F)F)c1 [Alpelisib] (partner 2 µM)
In short: as §1

UMC-11
relative viability (Pictilisib + Luminespib; first compound 0.02 µM): 1.02
relative viability (Pictilisib + Luminespib; first compound 0.06325 µM): 1.15
relative viability (Pictilisib + Luminespib; first compound 0.6325 µM): 1.09
relative viability (Pictilisib + Luminespib; first compound 2 µM): 0.988
relative viability (Pictilisib + OSI-027; first compound 0.02 µM): 0.538
relative viability (Pictilisib + OSI-027; first compound 0.06325 µM): 0.526
relative viability (Pictilisib + OSI-027; first compound 0.6325 µM): 0.48
relative viability (Pictilisib + OSI-027; first compound 2 µM): 0.383
relative viability (Pictilisib + Decitabine; first compound 0.02 µM): 0.644
relative viability (Pictilisib + Decitabine; first compound 0.06325 µM): 0.724
relative viability (Pictilisib + Decitabine; first compound 0.6325 µM): 0.566
relative viability (Pictilisib + Decitabine; first compound 2 µM): 0.519
relative viability (MK-2206 + Linsitinib; first compound 0.01 µM): 1.1
relative viability (MK-2206 + Linsitinib; first compound 0.03162 µM): 1.02
relative viability (MK-2206 + Linsitinib; first compound 0.3162 µM): 1.01
relative viability (MK-2206 + Linsitinib; first compound 1 µM): 1.01
relative viability (MK-2206 + Alpelisib; first compound 0.01 µM): 1.03
relative viability (MK-2206 + Alpelisib; first compound 0.03162 µM): 0.908
relative viability (MK-2206 + Alpelisib; first compound 0.3162 µM): 1.1
relative viability (MK-2206 + Alpelisib; first compound 1 µM): 0.994
